From EP4707280A1, “1,4-CINEOLE DERIVATIVE AND INTERMEDIATE THEREOF, HERBICIDE CONTAINING SAID DERIVATIVE AS ACTIVE INGREDIENT, METHOD FOR USING HERBICIDE, AND METHOD FOR PREPARING AGROCHEMICAL COMPOSITION” (HOKKO CHEMICAL INDUSTRY CO., LTD., priority 2023, dated 2024)

Legend:
Format in all cases: in vivo
[1] = test system: Echinochloa crus-galli var. formosensis; assay: Test Example 1: herbicidal effect test by soil application in paddy rice; conditions: Echinochloa crus-galli, soil, 336 h; 120 g active ingredient per 10 ares; applied immediately after sowing, flooded pots; 14 days after application; read-out: weed inhibition rate
Summary of the method: (§1)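 Soil-applied test under flooded paddy conditions (~3 cm water) in a glass greenhouse. Seeds were sown shallow (0–1 cm, 30 per species), then compound was dripped in as diluted emulsifiable concentrate at 120 g a.i./10 a.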

[2] = test system: Scirpus juncoides; assay: as above; conditions: Schoenoplectiella juncoides, soil, 336 h; 120 g active ingredient per 10 ares; applied immediately after sowing, flooded pots; 14 days after application; read-out: weed inhibition rate
Summary of the method: as §1

[3] = test system: Monochoria vaginalis; assay: as above; conditions: Pontederia vaginalis, soil, 336 h; 120 g active ingredient per 10 ares; applied immediately after sowing, flooded pots; 14 days after application; read-out: weed inhibition rate
Experimental: Wagner pots with an area of […] were filled with paddy soil, followed by addition of water and incorporation of chemical fertilizer (N:P:K = 16:16:16), after which puddling was performed. After that, seeds of Echinochloa crus-galli var. formosensis, broad-leaved weeds (Lindernia pyxidaria and Monochoria vaginalis), and Scirpus juncoides were sown at a depth of 0 cm to 1 cm, 30 seeds each. Immediately after sowing, the pots were flooded and a water depth of approximately 3 cm was maintained. Subsequent management was conducted in a glass greenhouse. Immediately thereafter, an emulsifiable concentrate prepared according to Formulation Example 5 using the compound shown below was diluted with water, and a specified amount of the diluted solution was applied by dropper. The amount of the active ingredient to be applied was equivalent to 120 g per 10 ares.
The present test was conducted in duplicate for each chemical concentration group, and the weed inhibition rate (%) was determined 14 days after chemical application using the following formula (Math. 1). [formula]

[4] = test system: Echinochloa crus-galli var. formosensis; assay: Test Example 2: herbicidal effect test by application during growth period of paddy rice; conditions: Echinochloa crus-galli; 120 g per 10 ares; applied seven days after sowing, flooded pots; 14 days after application; read-out: weed inhibition rate
Summary of the method: (§2)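 Paddy soil in flooded pots (water depth about 3 cm) was sown with weed seeds and kept in a glass greenhouse. Seven days after sowing, a diluted emulsifiable concentrate was applied by dropper at 120 g active ingredient per 10 ares. Weed inhibition was evaluated 14 days after application, in duplicate.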

[5] = test system: Monochoria vaginalis; assay: as above; conditions: Pontederia vaginalis; 120 g per 10 ares; applied seven days after sowing, flooded pots; 14 days after application; read-out: weed inhibition rate
Summary of the method: as §2

[6] = test system: Scirpus juncoides; assay: as above; conditions: Schoenoplectiella juncoides; 120 g per 10 ares; applied seven days after sowing, flooded pots; 14 days after application; read-out: weed inhibition rate
Summary of the method: as §2

[7] = test system: Digitaria ciliaris; assay: Test Example 4: herbicidal effect test by stem and leaf treatment in upland field; conditions: Digitaria ciliaris; 120 g per 10 ares; sprayed seven days after sowing, upland soil; 14 days after application; read-out: weed inhibition rate
[8] = test system: Echinochloa crus-galli; assay: as above; conditions: Echinochloa crus-galli; 120 g per 10 ares; sprayed seven days after sowing, upland soil; 14 days after application; read-out: weed inhibition rate
[9] = test system: Digitaria ciliaris; assay: Test Example 3: herbicidal effect test by soil application in upland field; conditions: Digitaria ciliaris, 120 g per 10 ares, sprayed one day after sowing, 14 days after application, read-out: weed inhibition rate
Summary of the method: (§3)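 Pre-emergence test: seeds mixed into top 1 cm of alluvial loam upland soil in pots; emulsifiable concentrate diluted in water sprayed on soil one day after sowing at 100 L/10 a, 120 g a.i./10 a. Weed inhibition rate (%) scored at 14 days, in duplicate.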

[10] = test system: Echinochloa crus-galli; assay: as above; conditions: Echinochloa crus-galli, 120 g per 10 ares, sprayed one day after sowing, 14 days after application, read-out: weed inhibition rate
Summary of the method: as §3

[11] = test system: Echinochloa crus-galli var. formosensis; assay: Test Example 5: herbicidal effect test by soil application in paddy rice (low dose); conditions: Echinochloa crus-galli, soil, 336 h; 7.5 g per 10 ares; applied immediately after sowing, flooded pots; 14 days after application; read-out: weed inhibition rate
Summary of the method: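 Paddy-soil pots, weeds sown 0–1 cm deep and flooded to about 3 cm in a greenhouse. Emulsifiable concentrate diluted in water and dropped in right after sowing at 7.5 g active ingredient per 10 ares. Duplicates; effect scored 14 days after application.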

[12] = test system: Echinochloa crus-galli var. formosensis; assay: Test Example 6: herbicidal effect test by application during growth period of paddy rice (low dose); conditions: Echinochloa crus-galli; 7.5 g per 10 ares; applied seven days after sowing, flooded pots; 14 days after application; read-out: weed inhibition rate
Summary of the method: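 Low-dose water application, 7.5 g a.i. per 10 ares, given by dropper into flooded pots (about 3 cm depth) 7 days after sowing of 30 weed seeds each at 0–1 cm. Evaluation of inhibition (%) took place 14 days later, duplicate per rate.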

[13] = test system: Digitaria ciliaris; assay: Test Example 7: herbicidal effect test by soil application in upland field (low dose); conditions: Digitaria ciliaris, 7.5 g per 10 ares, sprayed one day after sowing, 14 days after application, read-out: weed inhibition rate
Summary of the method: (§4)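 Upland alluvial loam pots, seeds mixed into top 1 cm of soil; one day after sowing, diluted emulsifiable concentrate sprayed on soil at 100 L/10 a, giving 7.5 g active ingredient/10 a. Duplicate pots; weed inhibition rate (%) scored 14 days after application.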

[14] = test system: Echinochloa crus-galli; assay: as above; conditions: Echinochloa crus-galli, 7.5 g per 10 ares, sprayed one day after sowing, 14 days after application, read-out: weed inhibition rate
Summary of the method: as §4

[15] = test system: Digitaria ciliaris; assay: Test Example 8: herbicidal effect test by stem and leaf treatment in upland field (low dose); conditions: Digitaria ciliaris; 7.5 g per 10 ares; sprayed seven days after sowing, upland soil; 14 days after application; read-out: weed inhibition rate
[16] = test system: Echinochloa crus-galli; assay: as above; conditions: Echinochloa crus-galli; 7.5 g per 10 ares; sprayed seven days after sowing, upland soil; 14 days after application; read-out: weed inhibition rate

Cc1ccccc1CO[C@H]1C[C@]2(C)O[C@@]1(C(C)C)C[C@H]2OCc1ccccc1C [1-597, (1S,2R,4R,5S)-1-methyl-2,5-bis[(2-methylphenyl)methoxy]-4-isopropyl-7-oxabicyclo[2.2.1]heptane]
≥ 80%: pest or weed control at 1200 g/ha [1] | pest or weed control at 1200 g/ha [2] | pest or weed control at 1200 g/ha [3] | inhibition at 1200 g/ha [4] | inhibition at 1200 g/ha [5] | inhibition at 1200 g/ha [6] | inhibition at 1200 g/ha [7] | inhibition at 1200 g/ha [8]

CC(C)[C@]12C[C@@H](OCc3ccccc3C#N)[C@](C)(CC1=O)O2 [2-354, 2-((((1S,2R,4R)-4-isopropyl-1-methyl-5-oxo-7-oxabicyclo[2.2.1]heptan-2-yl)oxy)methyl)benzonitrile]
≥ 80%: pest or weed control at 1200 g/ha [1] | pest or weed control at 1200 g/ha [2] | pest or weed control at 1200 g/ha [3] | inhibition at 1200 g/ha [4] | inhibition at 1200 g/ha [6] | inhibition at 1200 g/ha [9] | inhibition at 1200 g/ha [10] | inhibition at 1200 g/ha [7] | inhibition at 1200 g/ha [8] | inhibition at 75 g/ha [11] | inhibition at 75 g/ha [12] | inhibition at 75 g/ha [13] | inhibition at 75 g/ha [14]

CC(C)[C@]12C[C@@H](OCc3ccccc3)[C@](C)(CC1=O)O2 [2-1, (1R,4S,5R)-5-(benzyloxy)-1-isopropyl-4-methyl-7-oxabicyclo[2.2.1]heptan-2-one]
≥ 80%: pest or weed control at 1200 g/ha [1] | pest or weed control at 1200 g/ha [3] | inhibition at 1200 g/ha [4] | inhibition at 1200 g/ha [5] | inhibition at 1200 g/ha [9] | inhibition at 1200 g/ha [10] | inhibition at 1200 g/ha [7] | inhibition at 1200 g/ha [8]

CC(C)[C@]12C[C@@H](OCc3ccccc3F)[C@](C)(C=C1c1ccccc1)O2 [3-177, (1R,4S,5R)-5-((2-fluorobenzyl)oxy)-1-isopropyl-4-methyl-2-phenyl-7-oxabicyclo[2.2.1]hept-2-ene]
≥ 80%: pest or weed control at 1200 g/ha [1] | pest or weed control at 1200 g/ha [2] | pest or weed control at 1200 g/ha [3] | inhibition at 1200 g/ha [4] | inhibition at 1200 g/ha [5] | inhibition at 1200 g/ha [6] | inhibition at 1200 g/ha [9] | inhibition at 1200 g/ha [10] | inhibition at 1200 g/ha [7] | inhibition at 1200 g/ha [8] | inhibition at 75 g/ha [12]

CC(C)[C@]12C[C@@H](OCc3ccccc3F)[C@](C)(CC13OCCO3)O2 [1-936, (1R,4S,5R)-5-((2-fluorobenzyl)oxy)-1-isopropyl-4-methyl-7-oxaspiro[bicyclo[2.2.1]heptane-2,2'-[1,3]dioxolane]]
≥ 80%: pest or weed control at 1200 g/ha [1] | pest or weed control at 1200 g/ha [2] | pest or weed control at 1200 g/ha [3] | inhibition at 1200 g/ha [4] | inhibition at 1200 g/ha [9] | inhibition at 1200 g/ha [10] | inhibition at 1200 g/ha [8]

CC(C)[C@]12C[C@@H](OCc3ccccc3F)[C@](C)(CC1C1CCCC1)O2 (stereo partly drawn) [1-920, (1R,4S,5R)-2-cyclopentyl-5-[(2-fluorobenzyl)oxy]-1-isopropyl-4-methyl-7-oxabicyclo[2.2.1]heptane]
≥ 80%: pest or weed control at 1200 g/ha [1] | pest or weed control at 1200 g/ha [2] | pest or weed control at 1200 g/ha [3] | inhibition at 1200 g/ha [4] | inhibition at 1200 g/ha [5] | inhibition at 1200 g/ha [6] | inhibition at 1200 g/ha [7] | inhibition at 1200 g/ha [8] | inhibition at 75 g/ha [11] | inhibition at 75 g/ha [12]

CCC[C@@H]1C[C@]2(C)O[C@@]1(C(C)C)C[C@H]2OCc1ccccc1F [1-914, (1S,2R,4R,5R)-2-[(2-fluorophenyl)methoxy]-1-methyl-4-isopropyl-5-propyl-7-oxabicyclo[2.2.1]heptane]
≥ 80%: pest or weed control at 1200 g/ha [1] | pest or weed control at 1200 g/ha [2] | pest or weed control at 1200 g/ha [3] | inhibition at 1200 g/ha [4] | inhibition at 1200 g/ha [5] | inhibition at 1200 g/ha [6] | inhibition at 1200 g/ha [9] | inhibition at 1200 g/ha [10] | inhibition at 1200 g/ha [7] | inhibition at 1200 g/ha [8] | inhibition at 75 g/ha [11] | inhibition at 75 g/ha [12]

CC(C)[C@]12C[C@@H](OCc3ccccc3F)[C@](C)(CC1CCc1ccccc1)O2 (stereo partly drawn) [1-929, (1S,2R,4R)-2-((2-fluorobenzyl)oxy)-4-isopropyl-1-methyl-5-phenethyl-7-oxabicyclo[2.2.1]heptane]
≥ 80%: pest or weed control at 1200 g/ha [1] | pest or weed control at 1200 g/ha [2] | pest or weed control at 1200 g/ha [3] | inhibition at 1200 g/ha [4] | inhibition at 1200 g/ha [5] | inhibition at 1200 g/ha [9] | inhibition at 1200 g/ha [10] | inhibition at 1200 g/ha [7] | inhibition at 1200 g/ha [8] | inhibition at 75 g/ha [11] | inhibition at 75 g/ha [12] | inhibition at 75 g/ha [15]

CC(C)[C@]12C[C@@H](OCc3c(F)cccc3Cl)[C@](C)(C[C@@H]1Cl)O2 [1-653, (1R,2S,4S,5R)-2-chloro-5-[(2-chloro-6-fluoro-phenyl)methoxy]-1-isopropyl-4-methyl-7-oxabicyclo[2.2.1]heptane]
≥ 80%: pest or weed control at 1200 g/ha [1] | pest or weed control at 1200 g/ha [2] | inhibition at 1200 g/ha [4] | inhibition at 1200 g/ha [6] | inhibition at 1200 g/ha [9] | inhibition at 1200 g/ha [10] | inhibition at 1200 g/ha [7] | inhibition at 1200 g/ha [8] | inhibition at 75 g/ha [11] | inhibition at 75 g/ha [12] | inhibition at 75 g/ha [13] | inhibition at 75 g/ha [14] | inhibition at 75 g/ha [15] | inhibition at 75 g/ha [16]

Cc1ccccc1CO[C@@H]1C[C@]2(C(C)C)O[C@@]1(C)C=C2c1ccccc1 [3-175, (1R,4S,5R)-1-isopropyl-4-methyl-5-((2-methylbenzyl)oxy)-2-phenyl-7-oxabicyclo[2.2.1]hept-2-ene]
≥ 80%: pest or weed control at 1200 g/ha [1] | pest or weed control at 1200 g/ha [3] | inhibition at 1200 g/ha [4] | inhibition at 1200 g/ha [5] | inhibition at 1200 g/ha [9] | inhibition at 1200 g/ha [10] | inhibition at 1200 g/ha [7] | inhibition at 1200 g/ha [8]
